Laboratory results published in publication PMC11432795, “Mutagenesis of the Peptide Inhibitor of ASIC3 Channel Introduces Binding to Thumb Domain of ASIC1a but Reduces Analgesic Activity” (Marine Drugs, 2024).
Positions of bridges follow the written chain, without caps; N, C: chain ends. Residues, ends and D or L forms follow the SMILES beside them.

Assays:
[1] = molecular target: T1, rat ASIC1a/3 heteromeric channels (Rattus norvegicus, UniProt O35240+P55926); assay: Two-electrode voltage clamp, rat ASIC1a/3 heteromeric channels in X. laevis oocytes; type: cell-based
T1 construct: expressed in transfected cells; host or cells: Xenopus laevis oocytes co-injected with ASIC1a and ASIC3 mRNA (1:5)
T1 sequence (P55926 1-526): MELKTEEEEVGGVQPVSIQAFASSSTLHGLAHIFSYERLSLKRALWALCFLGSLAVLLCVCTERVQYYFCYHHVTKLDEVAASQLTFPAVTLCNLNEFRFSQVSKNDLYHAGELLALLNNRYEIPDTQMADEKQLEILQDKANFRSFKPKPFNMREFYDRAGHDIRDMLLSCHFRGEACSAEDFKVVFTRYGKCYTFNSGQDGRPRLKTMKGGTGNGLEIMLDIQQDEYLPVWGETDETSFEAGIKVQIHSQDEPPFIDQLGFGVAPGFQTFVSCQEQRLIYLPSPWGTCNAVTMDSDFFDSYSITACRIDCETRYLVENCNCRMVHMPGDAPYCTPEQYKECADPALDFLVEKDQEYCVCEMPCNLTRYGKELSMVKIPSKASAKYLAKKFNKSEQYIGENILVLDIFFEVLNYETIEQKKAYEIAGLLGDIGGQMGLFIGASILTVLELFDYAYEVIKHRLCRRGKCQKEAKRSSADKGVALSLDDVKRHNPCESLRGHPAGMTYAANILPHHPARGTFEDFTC
T1 sequence (O35240 1-533): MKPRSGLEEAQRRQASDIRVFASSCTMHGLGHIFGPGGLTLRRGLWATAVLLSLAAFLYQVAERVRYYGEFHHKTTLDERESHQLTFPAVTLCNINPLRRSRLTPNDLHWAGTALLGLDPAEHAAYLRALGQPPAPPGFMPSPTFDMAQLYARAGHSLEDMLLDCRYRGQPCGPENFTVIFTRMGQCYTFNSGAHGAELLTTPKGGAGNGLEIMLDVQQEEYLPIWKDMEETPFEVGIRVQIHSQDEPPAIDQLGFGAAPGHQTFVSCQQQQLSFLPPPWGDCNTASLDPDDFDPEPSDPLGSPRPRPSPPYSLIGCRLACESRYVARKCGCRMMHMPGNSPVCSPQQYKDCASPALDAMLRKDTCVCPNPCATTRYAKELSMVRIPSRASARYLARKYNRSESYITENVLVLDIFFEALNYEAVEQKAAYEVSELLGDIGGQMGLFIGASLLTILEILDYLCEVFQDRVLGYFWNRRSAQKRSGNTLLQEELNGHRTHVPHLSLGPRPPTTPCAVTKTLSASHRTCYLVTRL
From the text: Figure 4 The effect of the mutant peptide A23K on rat heteromeric ASIC1a/3 channels. […] The depicted currents were induced by a pH 5.5 stimulus following a conditioning pH of 7.4, with the peptide applied for 30 s before the pH stimulus. (B) Dose–response curve for the inhibitory effect of the mutant peptide. Each data point represents data from 6 cells. Data are presented as mean ± S.E.M.
A small portion of the ovary was isolated from frogs under anesthesia induced by a 0.17% solution of procaine methanesulphonate (MS222) (Sigma), followed by treatment with collagenase (1 mg/mL) at room temperature for 2 h. Oocytes at stages IV and V, devoid of follicular membranes, were transferred to ND-96 medium (containing 96 mM NaCl, 5 mM HEPES, 2 mM KCl, 1.8 mM CaCl2, 1 mM MgCl2, pH 7.4). mRNA synthesis was performed from pcDNA3.1 vectors (Invitrogen, Carlsbad, CA, USA) containing the rat ASIC3 gene, as well as pCI vectors containing genes for rat ASIC1a, its mutant analogues, and ASIC1b. mRNA (2.5–10 ng) was then injected into the oocytes. For the ASIC1a/3 heteromeric channels, the mRNA encoding the ASIC1a and ASIC3 subunits were injected in a 1:5 ratio, respectively. Subsequently, the oocytes were incubated for 2–3 days at a temperature of 17–19 °C in ND96 medium supplemented with gentamicin and streptomycin (20 µg/mL each).
Whole-cell electrophysiological recordings of ASIC channels were conducted using a two-electrode voltage-clamp setup. Microelectrodes were filled with 3 M KCl. Recordings from oocytes were carried out at a holding potential of −50 mV, with data filtered at 10 Hz and sampled at a rate of 100 Hz using an L780M ADC (LCard, Moscow, Russia). The synchronized delivery of solutions into the chamber and recording of electrophysiological results were carried out using in-house software v.2. Activation of ASIC channels occurred through rapid pH changes in the solution, achieved by replacing the working solution in the chamber with ND96-based solutions at varying pH levels. Specifically, HEPES was substituted with 10 mM MES for pH 5.5–6.5 and MOPS for pH 6.7–7.0.
Fresh peptide solutions were meticulously prepared in ND96 buffer with a pH of 7.43 immediately before experiments, with strict control over the pH levels. Peptides were applied for 30 s at a conditioning pH of 7.43 before acid stimulation of the channel. The interval between applications was maintained at a minimum of 1.5 to 2 min.
Electrophysiological data analysis was conducted using OriginPro 2018 software (OriginLab, Northampton, MA, USA). Dose–response relationships for Ugr9a-1, S16K, and A23K peptides were fitted using a Hill function: F1(x) = A − A/(1 + (x/IC50)^nH), where F1(x) represents the amplitude of the current at concentration x of the peptide, A is the maximum amplitude of the current, IC50 is the half-maximum inhibitory concentration of the peptide, and nH is the Hill coefficient.

human ASIC3 channels = conditions: ref [18]; cited from earlier work
From the text: Peptide Ugr9-1 was originally identified as a negative modulator of human ASIC3 channels. […] Combining comparative analysis, molecular modeling techniques, and structural and functional studies, we generated two novel peptide variants derived from Ugr9-1 capable of modulating both ASIC3 and ASIC1a channels.

Q: With `CC[C@H](C)[C@H](N)C(=O)N[C@@H](CO)C(=O)N[C@H](C(=O)N[C@@H](CC(=O)O)C(=O)N1CCC[C@H]1C(=O)N1CCC[C@H]1C(=O)N[C@H]1CSSC[C@@H]2NC(=O)[C@H](CC(N)=O)NC(=O)CNC(=O)[C@H](CO)NC(=O)CNC(=O)[C@H](CC(=O)O)NC(=O)[C@H](CCCNC(=N)N)NC(=O)[C@H](Cc3c[nH]cn3)NC(=O)[C@H](Cc3ccc(O)cc3)NC(=O)[C@H](CSSC[C@@H](C(=O)NCC(=O)N[C@@H](C)C(=O)N[C@H](C(=O)O)C(C)C)NC(=O)CNC(=O)[C@H](Cc3ccc(O)cc3)NC(=O)[C@H](CCCCN)NC(=O)[C@H](CC(=O)O)NC(=O)[C@H](Cc3ccc(O)cc3)NC(=O)[C@H](C(C)C)NC2=O)NC(=O)[C@H](Cc2ccccc2)NC(=O)[C@H](CCCNC(=N)N)NC1=O)[C@@H](C)CC` [A23K] (H-ISIDPPCRFCYHRDGSGNCVYDKYGCGAV-OH; disulfide 7-19, 10-26) as the molecule, how does the “inhibitory effect on heteromeric channels compared to homomeric ASIC1a” value ([1]; ASIC1a/3 versus homomeric ASIC1a) read?
A: approximately 1.6 -fold

Q: And the “inhibitory effect on heteromeric channels compared to homomeric ASIC3” value ([1]; ASIC1a/3 versus homomeric ASIC3)?
A: ~2.2 -fold

Q: And the nH ([1]; inhibition of rat ASIC1a/3, pH 5.5 stimulus, conditioning pH 7.4, mean ± S.E.M., 6 cells)?
A: 1.6 ± 0.2

Q: And the IC50 ([1]; rat ASIC1a/3 heteromer, X. laevis oocytes (mRNA 1:5), pH 5.5 stimulus, conditioning pH 7.4, peptide 30 s, mean ± S.E.M., 6 cells)?
A: 4.2 ± 0.6 µM

Q: And the “wash procedure required to restore ASIC1a/3 function” value ([1]; washout after peptide)?
A: extended wash procedure required to restore ASIC1a/3 function

Q: With `CC[C@H](C)[C@H](N)C(=O)N[C@@H](CO)C(=O)N[C@H](C(=O)N[C@@H](CC(=O)O)C(=O)N1CCC[C@H]1C(=O)N1CCC[C@H]1C(=O)N[C@H]1CSSC[C@@H]2NC(=O)[C@H](CC(N)=O)NC(=O)CNC(=O)[C@H](CO)NC(=O)CNC(=O)[C@H](CC(=O)O)NC(=O)[C@H](CCCNC(=N)N)NC(=O)[C@H](Cc3c[nH]cn3)NC(=O)[C@H](Cc3ccc(O)cc3)NC(=O)[C@H](CSSC[C@@H](C(=O)NCC(=O)N[C@@H](C)C(=O)N[C@H](C(=O)O)C(C)C)NC(=O)CNC(=O)[C@H](Cc3ccc(O)cc3)NC(=O)[C@H](C)NC(=O)[C@H](CC(=O)O)NC(=O)[C@H](Cc3ccc(O)cc3)NC(=O)[C@H](C(C)C)NC2=O)NC(=O)[C@H](Cc2ccccc2)NC(=O)[C@H](CCCNC(=N)N)NC1=O)[C@@H](C)CC` [Ugr9-1] (H-ISIDPPCRFCYHRDGSGNCVYDAYGCGAV-OH; disulfide 7-19, 10-26) as the molecule, how does the IC50 (human ASIC3 channels) read?
A: 10 µM
